Measurements published in US7452865B2, “Antagonistic analogs of GH RH (2003)” (The Administrare's of the Tulane Educational Fund, priority 2004, dated 2008).
Values joined by “and” are separate entries in the source; they are usually repeats but may differ in a detail not shown here. Equal values may be shown once. Square brackets hold non-standard residues; d marks the D form. Peptide text beside a SMILES is read from it. * marks the point of attachment. Phe(4-Cl) = N[C@@H](Cc1ccc(Cl)cc1)C(=O)O; hArg = N=C(N)NCCCC[C@H](N)C(=O)O; Nle = CCCC[C@H](N)C(=O)O; Abu = CC[C@H](N)C(=O)O; PhAc = O=C(Cc1ccccc1)*

System: hGH-RH(1-29)NH2 induced GH release
Experiment: Inhibition of GH release in superfused rat pituitary system
Type: cell-based
Description: The analogs were tested in vitro in a test described earlier (S. Vigh and A. V Schally, Peptides 5:241-[…], 1984) with modification (Z. Rekasi and A. V. Schally, P.N.A.S. 90:2146-2149, 1993).
Briefly, the cells are preincubated with peptides for 9 minutes (3 mL) at various concentrations. Immediately after the incubation, 1 nM hGH-RH(1-29)NH2 is administered for 3 minutes (1 mL) 10 minute response). To check the duration of the antagonistic effect of the analogue, 1 nM hGH-RH(1-29)NH2 is applied 30, 60, 90, and 120 minutes later for 3 minutes [30, 60, 90, 120 min responses]. Net integral values of the GH responses are evaluated. GH responses are compared to and expressed as percent of the original GH response induced by 1 nM GH-RH(1-29)NH2 The effect of the new antagonists are compared to that of [Ac-Tyr^1, D-Arg^2]hGH-RH(1-29)NH2, the “Standard antagonist”.
Rat GH levels in aliquots of undiluted and diluted superfusion samples were measured by double-antibody radioimmunoassay using materials supplied by the National Hormone and Pituitary Program, Baltimore, Md. The results of RIA were analyzed with a computer program developed in our institute (V. Csernus and A. V. Schally, in Neuroendocrine Research Methods, Harwood Academic (Greenstein, B. D. ed., London, pp. 71-109, 1991), hereby incorporated by reference.

[1] = antagonist 30 nM, 1 nM hGH-RH(1-29)NH2 at 0 min
[2] = antagonist 30 nM, 1 nM hGH-RH(1-29)NH2 at 30 min
[3] = antagonist 30 nM, 1 nM hGH-RH(1-29)NH2 at 60 min
[4] = antagonist 30 nM, 1 nM hGH-RH(1-29)NH2 at 90 min
[5] = antagonist 30 nM, 1 nM hGH-RH(1-29)NH2 at 120 min

Molecule | GH response (% of control) 0 min [1] | GH response (% of control) 30 min [2] | GH response (% of control) 60 min [3] | GH response (% of control) 90 min [4] | GH response (% of control) 120 min [5] | endocrine antagonistic potency: inhibition of the GH release stimulated by hGH-RH(1-29)NH2 (in words) (general statement, in vitro and in vivo) | GH response (% of control) 0 min (antagonist 10 nM, 0 min) | GH response (% of control) 30 min (antagonist 10 nM, 30 min) | GH response (% of control) 60 min (antagonist 10 nM, 60 min) | GH response (% of control) 90 min (antagonist 10 nM, 90 min) | GH response (% of control) 120 min (antagonist 10 nM, 120 min)
CCCC[C@H](NC(=O)[C@@H](NC(=O)[C@H](CC(=O)O)NC(=O)[C@H](CCC(N)=O)NC(=O)[C@H](CC(C)C)NC(=O)[C@H](CC(C)C)NC(=O)[C@H](CCCCN)NC(=O)[C@H](CCCNC(=N)N)NC(=O)[C@H](C)NC(=O)[C@H](CO)NC(=O)[C@H](CC(C)C)NC(=O)[C@H](CCC(N)=O)NC(=O)[C@H](CC)NC(=O)[C@H](CC(C)C)NC(=O)[C@@H](NC(=O)[C@H](CCCCNC(=N)N)NC(=O)[C@H](CCCNC(=N)N)NC(=O)[C@H](Cc1ccc(O)cc1)NC(=O)[C@H](CCCNC(=N)N)NC(=O)[C@H](CC(N)=O)NC(=O)[C@@H](NC(=O)[C@H](Cc1ccc(Cl)cc1)NC(=O)[C@@H](NC(=O)[C@H](C)NC(=O)[C@H](CC(=O)O)NC(=O)[C@@H](CCCNC(=N)N)NC(=O)[C@H](Cc1ccc(O)cc1)NC(=O)Cc1ccccc1)[C@@H](C)CC)[C@@H](C)O)C(C)C)[C@@H](C)CC)C(=O)N[C@H](CCCNC(=N)N)C(=O)N[C@@H](CCCCNC(=N)N)C(N)=O [Peptide 43, [PhAc-Tyr^1, D-Arg^2, Phe(pC)^6, Arg^9, Har^12, Abu^15, Nle^27, D-Arg^28, Har^29]hGH-RH(1-29)NH2] (PhAc-Y[dR]DAI[Phe(4-Cl)]TNRYR[hArg]VL[Abu]QLSARKLLQDI[Nle][dR][hArg]-NH2) | 82 % of control | 74 % of control | 102 % of control | 72 % of control | 51 % of control | – | – | – | – | – | –
[CH3(CH2)4CO-Tyr^1, D-Arg^2, Phe(pCl)^6, Arg^9, Abu^15, Nle^27, D-Arg^28, Har^29]hGH-RH(1-29)NH2 [Peptide 2] | 18 % of control | 13 % of control | 18 % of control | 25 % of control | 51 % of control | – | – | – | – | – | –
[PhAc-Tyr^1, D-Arg^2, Phe(pCl)^6, Har^9, Tyr(Me)^10, Abu^15, Nle^27, D-Arg^28, Agm^29]hGH-RH(1-29) [Peptide 52] | 86 % of control | 13 % of control | 45 % of control | 26 % of control | 55 % of control | – | – | – | – | – | –
[PhAc-Tyr^1, D-Arg^2, Phe(pCl)^6, Arg^9, His^10, Abu^15, Nle^27, D-Arg^28, Har^29]hGH-RH(1-29)NH2 [Peptide 32] | 28 % of control | 43 % of control | 69 % of control | 76 % of control | – | – | – | – | – | – | –
[PhAc-Tyr^1, D-Arg^2, Phe(pCl)^6, Arg^9, Abu^15, Nle^27, D-Arg^28, Har^29]hGH-RH(1-29)NHEt [Peptide 48] | 22 % of control | 21 % of control | 44 % of control | 44 % of control | 47 % of control | – | – | – | – | – | –
[PhAc-Tyr^1, D-Arg^2, Phe(pCl)^6, Cit^8, Arg^9, Abu^15, Nle^27, D-Arg^28, Har^29]hGH-RH(1-29)NH2 [Peptide 21] | 0 % of control | 13 % of control | 33 % of control | 43 % of control | 37 % of control | high endocrine antagonistic potencies | – | – | – | – | –
[PhAc-Tyr^1, D-Arg^2, Phe(pCl)^6, Cit^8, Arg^9, Abu^15, Nle^27, Har^28, D-Arg^29]hGH-RH(1-29)NH2 [Peptide 23] | 55 % of control | 40 % of control | 41 % of control | 47 % of control | 41 % of control | – | – | – | – | – | –
[Ipa-Tyr^1, D-Arg^2, Phe(pCl)^6, Har^9, Tyr(Me)^10, Abu^15, Nle^27, D-Arg^28, Har^29, Har^30]hGH-RH(1-30)NH2 [Peptide 55] | 93 % of control | 63 % of control | 96 % of control | 61 % of control | 93 % of control | – | – | – | – | – | –
[PhAc-Tyr^1, D-Arg^2, Phe(pCl)^6, D-Ala^8, Arg^9, Abu^15, Nle^27, D-Arg^28, Har^29]hGH-RH(1-29)NH2 [Peptide 26] | 20 % of control | 43 % of control | 66 % of control | 48 % of control | 44 % of control | – | – | – | – | – | –
[HOOC(CH2)14CO-Tyr^1, D-Arg^2, Phe(pCl)^6, Arg^9, Abu^15, Nle^27, D-Arg^28, Har^29]hGH-RH(1-29)NH2 [Peptide 13] | 87 % of control | 77 % of control | 76 % of control | 71 % of control | 73 % of control | – | – | – | – | – | –
[PhAc-D-Arg^0, D-Arg^2, Phe(pCl)^6, Arg^9, Abu^15, Nle^27, D-Arg^28, Har^29]hGH-RH(1-29)NH2 [Peptide 19] | 62 % of control | 64 % of control | 66 % of control | 82 % of control | 74 % of control | – | – | – | – | – | –
[PhAc-Arg^0, D-Arg^2, Phe(pCl)^6, Arg^9, Abu^15, Nle^27, D-Arg^28, Har^29]hGH-RH(1-29)NH2 [Peptide 18] | 21 % of control | 71 % of control | 61 % of control | 75 % of control | 63 % of control | – | – | – | – | – | –
[PhAc-Tyr^1, D-Arg^2, Phe(pCl)^6, Har^9, Tyr(Me)^10, Abu^15, Nle^27, D-Arg^28, Har^29, Agm^30]hGH-RH(1-30) [Peptide 60] | 73 % of control and 87 % of control | 27 % of control and 29 % of control | 34 % of control and 65 % of control | 56 % of control and 36 % of control | 42 % of control and 63 % of control | – | – | – | – | – | –
[PhAc-Tyr^1, D-Arg^2, Phe(pCl)^6, Arg^9, Cha^10, Abu^15, Nle^27, D-Arg^28, Har^29]hGH-RH(1-29)NH2 [Peptide 33] | 97 % of control | 89 % of control | 78 % of control | 97 % of control | 82 % of control | – | – | – | – | – | –
CCCC[C@H](NC(=O)[C@@H](NC(=O)[C@H](CC(=O)O)NC(=O)[C@H](CCC(N)=O)NC(=O)[C@H](CC(C)C)NC(=O)[C@H](CC(C)C)NC(=O)[C@H](CCCCN)NC(=O)[C@H](CCCNC(=N)N)NC(=O)[C@H](C)NC(=O)[C@H](CO)NC(=O)[C@H](CC(C)C)NC(=O)[C@H](CCC(N)=O)NC(=O)[C@H](CC)NC(=O)[C@H](CC(C)C)NC(=O)[C@@H](NC(=O)[C@H](CCCCN)NC(=O)[C@H](CCCNC(=N)N)NC(=O)[C@H](Cc1ccc(O)cc1)NC(=O)[C@H](CCCNC(=N)N)NC(=O)[C@H](CC(N)=O)NC(=O)[C@@H](NC(=O)[C@H](Cc1ccc(Cl)cc1)NC(=O)[C@@H](NC(=O)[C@H](C)NC(=O)[C@H](CC(=O)O)NC(=O)[C@@H](CCCNC(=N)N)NC(=O)[C@H](Cc1ccc(O)cc1)NC(=O)Cc1ccccc1)[C@@H](C)CC)[C@@H](C)O)C(C)C)[C@@H](C)CC)C(=O)N[C@H](CCCNC(=N)N)C(=O)N[C@@H](CCCCNC(=N)N)C(N)=O [JV-1-36, reference compound] (PhAc-Y[dR]DAI[Phe(4-Cl)]TNRYRKVL[Abu]QLSARKLLQDI[Nle][dR][hArg]-NH2; N-terminus and C-terminus assumed) | 36 % of control | 21 % of control | 25 % of control | 29 % of control | 29 % of control | – | 80 % of control | 42 % of control | 60 % of control | 64 % of control | 85 % of control
